Read-outs that look alike come from different tables or passages of the source. Where no end group is shown, it is not given here.
Tests used:
hTLR2 = molecular target: T1, hTLR2 (Homo sapiens, UniProt O60603); test: hTLR2 stimulation in HEK-Blue hTLR2 cells (NF-κβ/SEAP reporter, QUANTI-Blue); type: cell-based
T1 construct: expressed in transfected cells; host or cells: HEK-Blue hTLR2 cells
Experimental: The analysis of the biological activity of the protein of SEQ ID NO. 1 was performed via an in vitro Toll-like receptors (TLRs) recognition assay. The HEK-Blue hTLR2 cell line expressing the hTLR2 receptor was used, whose stimulation activates the NF-Kβ factor, which in turn induces the production of the reporter protein, secreted embryonic alkaline phosphatase (SEAP). The SEAP levels are quantified by a colorimetric method with the reagent QUANTI-Blue and correspond to hTLR2 stimulation levels. The HEK-Blue hTLR2 cell line was thawed and propagated to make a master cell bank. From this bank, a vial was thawed to check the correct growth of the cell line and the absence of mycoplasma contamination. The cells of the thawed vial were propagated to make a working cell bank and continue the subcultures to mount the activity assay of SEQ ID NO. 1. This consisted of a series of tests in which the cellular response was evaluated with different molecules to determine the most suitable conditions for the assay.
The determined EC50 for SEQ ID NO. 1 was 1147±211 ng/ml (35.1±6.4 nM).
The in vitro biological activity of SEQ ID NO:2, SEQ ID NO:3, SEQ ID NO:4, SEQ ID NO: 8, SEQ ID NO:9, SEQ ID NO: 10, SEQ ID NO:11, SEQ ID NO: 12, SEQ ID NO: 13, SEQ ID NO: 14, SEQ ID NO: 15, and SEQ ID NO:16 was tested via the stimulation of hTLR2 in the cultures of HEK-Blue hTLR2 cells in 96-well plates for 24 h. After collecting the supernatant, the plate was incubated with QUANTI-Blue at 37° C. for 1 h, and absorbance was measured at 620 nm.
To determine the EC50, the absorbance was plotted against the logarithm of protein concentration, and the data was adjusted to a dose-response sigmoidal ligand binding model with 4 parameters. The cell culture medium was used as a negative control, and PAM (synthetic triacylated lipopeptide (Pam3CSK4)) was used as a positive control.

leptin = test: Leptin levels in mice fed a high-fat diet; type: in vivo, mice (C57BL/6JN); settings: 12 weeks; compared to mice fed only DAG
Experimental: (§1) For all the in vivo testing, male mice of the C57BL/6JN strain between 8 to 10 weeks of age were used, housed in groups of 3 to 5 mice per cage with food and water ad libitum in ventilated racks, and whose microbiota were unified for 4 weeks.
(§2) The mice received either 200 μL of a phosphate buffer solution (PBS) at pH 7.5 (as a vehicle), or 200 μL of the PBS solution, with each of the intragastric treatments daily for 12 weeks. They were fed either a Normal Diet (DN, Harlan, Teklad 2018SX) with 18% of the calories coming from fat, or a High-Fat Diet (DAG, Research Diets, D12491), with 60% of the calories coming from fat.
(§3) All the mice were randomly divided into five experimental groups in order to study the effect of SEQ ID NO: 3 and SEQ ID NO: 2 correctly: • Group 1—Mice with DN that received 200 μl of PBS intragastrically. • Group 2—Mice with DAG that received 200 μl of PBS intragastrically. • Group 3—Mice with DAG that received 200 μl of PBS with SEQ ID NO: 3 intragastrically at a dose of: 2.5 μg/mouse. • Group 4—Mice with DAG that received 200 μl of PBS with SEQ ID NO: 2 intragastrically at a dose of 0.6 μg/mouse (high dose). • Group 5—Mice with DAG that received 200 μl of PBS with SEQ ID NO: 2 intragastrically at a dose of 0.2 μg/mouse (low dose). […]

adipose tissue = test: Cellular infiltrate / inflammatory process in adipose tissue of mice fed a high-fat diet; type: in vivo, mice (C57BL/6JN)
Experimental: as §1, §2
(§4) All the mice were randomly divided into five experimental groups in order to study the effect of SEQ ID NO: 3 and SEQ ID NO: 2 correctly: • Group 1—Mice with DN that received 200 μl of PBS intragastrically. • Group 2—Mice with DAG that received 200 μl of PBS intragastrically. • Group 3—Mice with DAG that received 200 μl of PBS with SEQ ID NO: 3 intragastrically at a dose of: 2.5 μg/mouse. • Group 4—Mice with DAG that received 200 μl of PBS with SEQ ID NO: 2 intragastrically at a dose of 0.6 μg/mouse (high dose). • Group 5—Mice with DAG that received 200 μl of PBS with SEQ ID NO: 2 intragastrically at a dose of 0.2 μg/mouse (low dose).
(§5) To determine the effect of the peptides SEQ ID NO: 2 and SEQ ID NO: 3 in attenuating the inflammatory process in adipose tissue, the cellular infiltrate of the adipose tissue of the mice was quantified after they had been fed DAG.

insulin = test: Insulin levels (secretion in response to glucose) in mice fed a high-fat diet; type: in vivo, mice (C57BL/6JN); settings: 12 weeks; versus DAG group
Experimental: as §1, §2, §4
This means that the peptide SEQ ID NO: 3 improves insulin sensitivity, preventing insulin resistance from developing.

mice fed a high-fat diet [1] = test: Insulin resistance test (PRI) in mice fed a high-fat diet; type: in vivo, mice (C57BL/6JN); settings: 12 weeks; intragastric daily; SEQ ID NO: 3 2.5 μg/mouse, SEQ ID NO: 2 0.6 or 0.2 μg/mouse
Experimental: as §1
(§6) The mice received either 200 μL of a phosphate buffer solution (PBS) at pH 7.5 (as a vehicle), or 200 μL of the PBS solution, with each of the intragastric treatments daily for 12 weeks. They were fed either a Normal Diet (DN, Harlan, Teklad 2018SX) with 18% of the calories coming from fat, or a High-Fat Diet (DAG, Research Diets, D12491), with 60% of the calories coming from fat. […]
The mice were subjected to fasting for 6 hours and the baseline glucose values were determined, as described above. Subsequently, the mice received an intraperitoneal injection of 1 mU of insulin per gram of body weight, and blood glucose values were recorded at 15, 30, 60, and 120 minutes after administration. The area under the curve (AUC) of the insulin resistance test was calculated considering the glucose decrease between time T0 and T15 using the absolute glucose values, as shown in FIGS. 20A and 20B.

adiponectin = test: Adiponectin levels in mice fed a high-fat diet; type: in vivo, mice (C57BL/6JN); settings: 12 weeks; fall induced by DAG
Experimental: as §1, §2, §3

mice fed a high-fat diet [2] = test: Glucose tolerance test (GTT) in mice fed a high-fat diet; type: in vivo, mice (C57BL/6JN); settings: 12 weeks; intragastric daily; SEQ ID NO: 3 2.5 μg/mouse, SEQ ID NO: 2 0.6 or 0.2 μg/mouse
Experimental: as §1, §6
The mice were subjected to fasting for 6 hours, and the baseline glucose values in the blood were determined using glucose test strips and a glucometer (Roche's ACCU-CHECK ACTIVE).
Next, the mice received an intraperitoneal injection of 1.8 mg of glucose per gram of body weight, and the blood glucose values were recorded at 15, 30, 60, and 120 minutes after administration.
FIGS. 19A and 19B show the area under the curve (AUC) of the glucose tolerance test of the mice, measured at week 0 and 12.

TNFα = test: Circulating TNFα levels in mice fed a high-fat diet; type: in vivo, mice (C57BL/6JN); settings: 12 weeks; versus DAG; including SEQ ID NO: 2 at low doses
Experimental: as §1, §6, §5

[3] = Body weight of mice on high-fat diet (DAG) with intragastric peptide for 12 weeks; type: in vivo, mice (C57BL/6JN)
Experimental: as §1, §2, §4
The animal weights and feed intakes were recorded weekly.
To determine the metabolic status of the animals before starting the experiment, weight, basal glucose levels, glucose tolerance, and insulin resistance were recorded.

IL-1B = test: Circulating IL-1B levels in mice fed a high-fat diet; type: in vivo, mice (C57BL/6JN); settings: 12 weeks; versus DAG; including SEQ ID NO: 2 at low doses
Experimental: as §1, §6, §5

IL-6 = IL-6 levels in mice fed a high-fat diet; type: in vivo, mice (C57BL/6JN); settings: 12 weeks; animals fed DAG
Experimental: as §1, §2, §4

[4] = molecular target: T2, human Toll-like receptor 2 (hTLR2) on HEK-Blue hTLR2 cells (human (printed as hTLR2), UniProt O60603 21-784); test: cell-based or functional assay
T2 sequence (O60603 21-784): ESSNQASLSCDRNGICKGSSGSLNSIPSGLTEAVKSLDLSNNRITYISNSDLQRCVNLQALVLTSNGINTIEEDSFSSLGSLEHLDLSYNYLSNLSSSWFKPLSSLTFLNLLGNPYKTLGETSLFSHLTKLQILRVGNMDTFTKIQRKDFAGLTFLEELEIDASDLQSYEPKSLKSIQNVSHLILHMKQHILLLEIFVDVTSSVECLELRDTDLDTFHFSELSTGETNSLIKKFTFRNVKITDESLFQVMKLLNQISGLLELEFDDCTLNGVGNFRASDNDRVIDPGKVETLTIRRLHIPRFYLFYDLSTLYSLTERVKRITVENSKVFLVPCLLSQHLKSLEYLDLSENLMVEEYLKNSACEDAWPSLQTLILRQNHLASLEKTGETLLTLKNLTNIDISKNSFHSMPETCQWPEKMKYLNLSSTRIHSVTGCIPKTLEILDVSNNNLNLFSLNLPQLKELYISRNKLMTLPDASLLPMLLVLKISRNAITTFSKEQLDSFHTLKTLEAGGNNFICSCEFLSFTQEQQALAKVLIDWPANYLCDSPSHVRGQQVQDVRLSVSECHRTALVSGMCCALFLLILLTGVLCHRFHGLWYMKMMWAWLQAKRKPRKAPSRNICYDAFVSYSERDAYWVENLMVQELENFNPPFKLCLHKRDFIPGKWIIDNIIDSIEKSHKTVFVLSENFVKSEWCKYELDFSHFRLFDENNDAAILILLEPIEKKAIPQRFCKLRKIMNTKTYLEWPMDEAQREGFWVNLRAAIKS

[5] = Aggregation during ultrafiltration / buffer change; type: physicochemical
Source text: The protein of SEQ ID NO. 1, expressed in recombinant form in this invention, contains a tag of six residues of histidine at the carboxyl terminal end, allowing it to be purified by immobilized metal cation affinity chromatography (IMAC). Purification was initially evaluated with the soluble fractions of the two strains that were used for recombinant production, obtained by enzymatic lysis and sonication. The first approach with the Ni-NTA Agarose resin allowed for the recovery of 6% of the SEQ ID NO. 1 with a purity of 50-80%. An FPLC Ákta Prime chromatographic system and an XK16/20 column packed with 13 mL of Chelating Sepharose Fast Flow-Ni^+2 resin were used for purification. A minimum imidazole concentration of 30 mM was defined in both the sample to be injected and the equilibrium buffer. Elution was performed with 500 mM imidazole at 6.5 mL/min, resulting in a minimum recovery of 80% of SEQ ID No. 1 with 82% purity. The ultrafiltration of the tangential flow of SEQ ID NO. 1 during the chromatography stage, in order to concentrate and change the buffer, negatively impacted protein quality. However, the dialysis of EQ ID NO.
However, the aggregation of SEQ ID NO. […] This was corroborated by the SDSPAGE analysis, in which the remaining protein in the soluble fraction presented fragments of lower molecular weight than that of SEQ ID NO. 1, but greater than 25 kDa. On the other hand, the precipitate turned out to be denatured SEQ ID NO. 1, but not degraded.
Finally, SEQ ID NO. 4 and SEQ ID NO.

[6] = molecular target: T2, human Toll-like receptor 2 (hTLR2) on …; test: cell-based or functional assay; remark: listed apart in the source

T1 sequence (O60603 21-784): as above

SEQ ID NO: 16: peptide of the Lys-C proteolysate, retained at the 10 kDa cutoff (EQVFVQVSLNLVHFNQPK)
stimulation of hTLR2 (hTLR2): do not stimulate hTLR2

SEQ ID NO: 12: peptide generated by proteolysis, obtained with both trypsin and Lys-C (MQLPIETPANNPEESDEADQAPWTPMPLEIAFQGDRESVLK)
stimulation of hTLR2 (hTLR2): do not stimulate hTLR2

SEQ ID NO: 14: peptide of the Lys-C proteolysate, passes the 5 kDa ultrafiltration membrane (PYMGK)
stimulation of hTLR2 (hTLR2): do not stimulate hTLR2

AMNAITGMQDYLFTVNSIRIRNERMMPPPIANPAAAK [SEQ ID NO: 2]
leptin secretion (leptin): decrease in leptin secretion
concentration from which hTLR2 is (significantly) stimulated (hTLR2; HEK-Blue hTLR2 cells, 24 h): 3.05 nM
concentration giving the best hTLR2 stimulation (hTLR2; HEK-Blue hTLR2 cells, 24 h): 305 nM
cellular infiltrate of adipose tissue (adipose tissue; 12 weeks, versus DAG group): prevented the increase in cellular infiltrate induced by DAG
inflammatory process in adipose tissue (adipose tissue; SEQ ID NO:2 in high or low doses): attenuate the inflammatory process in adipose tissue
insulin secretion in response to glucose administration (insulin): tendency to decrease insulin secretion
insulin sensitivity (AUC of insulin resistance test) versus DAG group (mice fed a high-fat diet [1]): improve insulin sensitivity
adiponectin in circulation (adiponectin): tendency to prevent a fall of adiponectin
glucose tolerance (AUC of GTT) versus DAG group (mice fed a high-fat diet [2]): improved glucose tolerance
circulating levels of TNFα (TNFα): prevented the increase in the circulating levels
Average weight ([3]; 0 weeks (initial state), DAG + SEQ ID NO: 2 High dose group): 23.9 grams
Average weight ([3]; 0 weeks (initial state), DAG + SEQ ID NO: 2 Low dose group): 23.8 grams
Average weight ([3]; 12 weeks, DAG + SEQ ID NO: 2 High dose (0.6 μg/mouse) intragastric daily): 42 grams
Average weight ([3]; 12 weeks, DAG + SEQ ID NO: 2 Low dose (0.2 μg/mouse) intragastric daily): 40.2 grams
circulating levels of IL-1B (IL-1B): prevented the increase in the circulating levels of IL-1B
IL-6 levels (IL-6): dramatic decrease in IL-6 levels

B1: peptide SEQ ID NO: 4 (amino terminal domain of SEQ ID NO: 1) (peptide)
chain: IVNSKRSELDKKISIAAKEIKSANAAEITPSRSSNEELEKELNRYAKAVGSLETAYKPFLASSALVPTTPTAFQNELKTFRDSLISSCKKKNILITDTSSWLGFQVYSTQAPSVQAASTLGFELKAINSLVNKLAECGLSKFIKVYRPQ
concentration from which hTLR2 is (significantly) stimulated (hTLR2; HEK-Blue hTLR2 cells, 24 h): 38 nM
relative response compared to PAM (hTLR2; maximum concentration tested (305 nM)): 101%
EC50 [4]: 65.9 nM
aggregation in ultrafiltration operations [5]: no visible aggregation

B2: protein of SEQ ID NO: 1 (AMUC_1100 of Akkermansia muciniphila without signal peptide, with Xa factor site and histidine tag) (ligand)
chain: MIVNSKRSELDKKISIAAKEIKSANAAEITPSRSSNEELEKELNRYAKAVGSLETAYKPFLASSALVPTTPTAFQNELKTFRDSLISSCKKKNILITDTSSWLGFQVYSTQAPSVQAASTLGFELKAINSLVNKLAECGLSKFIKVYRPQLPIETPANNPEESDEADQAPWTPMPLEIAFQGDRESVLKAMNAITGMQDYLFTVNSIRIRNERMMPPPIANPAAAKPAAAQPATGAASLTPADEAAAPAAPAIQQVIKPYMGKEQVFVQVSLNLVHFNQPKAQEPSEDIEGRHHHHHHDI
relative activation of NF-κβ (hTLR2; 10 μg/mL, 24 h stimulation of hTLR2, 60 min QUANTI-Blue, with respect to the culture medium): 16.6%±2.7
EC50 [4]: 35.1 nM
aggregation in ultrafiltration operations [5]: aggregation
EC50 [6]: 1.15 µg/mL

AMNAITGMQDYLFTVNSIRIRNERMMPPPIANPAAAK [peptide SEQ ID NO: 2]
EC50 [4]: 24.9 nM
